Experimental data as given in patent US20200093814A1, “COMBINATION THERAPY WITH AMIDINE SUBSTITUTED BETA-LACTAM COMPOUNDS AND BETA-LACTAMASE INHIBITORS FOR INFECTIONS WITH ANTIBIOTIC RESISTANT BACTERIAL STRAINS” (AiCuris GmbH & Co. KG, priority 2016, published 2020).

How the values were obtained:
Assay type in all cases: cell-based
Settings in all cases: BLI where combined at 4 μg/mL
[1] = system: E. coli 121 (CTX-M); test: MIC determination, broth microdilution (CLSI)
Text: (§1) While the compounds of this invention were serially diluted as described above, a constant concentration of the β-lactamase inhibitor of […] was used.

[2] = system: K. pneumoniae 68 (SHV-5); test: MIC determination, broth microdilution (CLSI)
Text: as §1

[3] = system: K. pneumoniae 16/10 (OXA-48, CTX-M-15); test: MIC determination, broth microdilution (CLSI)
Text: as §1

[4] = system: E. coli 72 (CTX-M); test: MIC determination, broth microdilution (CLSI)
Text: as §1

[5] = system: E. coli 10 (TEM-20); test: MIC determination, broth microdilution (CLSI)
Text: as §1

[6] = system: E. coli J62-TEM-3 transconjugant (TEM-3); test: MIC determination, broth microdilution (CLSI)
Text: as §1

[7] = system: K. pneumoniae NRZ-15601 (OXA-48, SHV-12); test: MIC determination, broth microdilution (CLSI)
Text: as §1

[8] = system: E. coli 128 (SHV-2a); test: MIC determination, broth microdilution (CLSI)
Text: as §1

[9] = system: E. coli DSM 22315 (VEB-1); test: MIC determination, broth microdilution (CLSI)
Text: as §1

[10] = system: E. coli 17 (CTX-M, CMY-2); test: MIC determination, broth microdilution (CLSI)
Text: as §1

[11] = system: K. pneumoniae 79 (CTX-M); test: MIC determination, broth microdilution (CLSI)
Text: as §1

[12] = system: E. cloacae 58 (SHV-12, de-repressed AmpC)
[13] = system: K. pneumoniae NCTC 13440 (VIM-1, SHV-12); test: MIC determination, broth microdilution (CLSI)
Text: as §1

Molecule | MIC [1] [µg/mL] | MIC [2] [µg/mL] | MIC [3] [µg/mL] | MIC [4] [µg/mL] | MIC [5] [µg/mL] | MIC [6] [µg/mL] | MIC [7] [µg/mL] | MIC [8] [µg/mL] | MIC [9] [µg/mL] | MIC [10] [µg/mL] | MIC [11] [µg/mL] | MIC [12] [µg/mL] | MIC [13] [µg/mL]
CC(C)(O/N=C(\C(=O)N[C@@H]1C(=O)N2C(C(=O)[O-])=C(C[n+]3ccccc3)CS[C@H]12)c1csc(N)n1)C(=O)O [ceftazidime] | 32 | 64 | 128 | 32 | 32 | 16 | 64 | 16 | 128 | 128 | 16 | 128 | –
aztreonam | 64 | 128 | – | 128 | 64 | 8 | – | 8 | 64 | 128 | 32 | – | 128
